Experimental data: paper PMC5602538, “Assessment of the Drug Interaction Potential of Unconjugated and GalNAc3-Conjugated 2′-MOE-ASOs” (Molecular Therapy. Nucleic Acids, 2017)

What was measured:
[1] = biological target: CYP2E1 (Homo sapiens, UniProt P05181); assay: CYP2E1 inhibition in cryopreserved human hepatocyte suspensions (chlorzoxazone probe)
Procedure: (§1) Preincubations were performed in 50 μL of Williams’ Medium E with 2 mM salicylamide. The salicylamide was included to reduce possible phase II conjugation to the precursor phase I metabolites. […] Human hepatocytes (pooled from 5 donors) were thawed and prepared according to the vendor’s protocol. […] Incubations were carried out at 37°C with 5% CO2. The incubation time was 45 min for phenacetin, diclofenac, dextromethorphan, midazolam, bupropion, chlorzoxazone, and testosterone and 90 min for paclitaxel and (S)-mephenytoin. The reactions were stopped by adding 200 μL of ice-cold acetonitrile (can) with tolbutamide (100 ng/mL) as the internal standard to 100 μL of hepatocyte suspension (1:2, v/v). The 96-well plate was then vortexed at 1,700 rpm for 3 min and centrifuged at 3,500 rpm for 10 min at 20°C. The supernatants were analyzed using liquid chromatography-tandem MS (LC-MS/MS).

[2] = biological target: T1, CYP2B6 (Homo sapiens, UniProt P20813); assay: biochemical
T1 sequence (P20813 1-491): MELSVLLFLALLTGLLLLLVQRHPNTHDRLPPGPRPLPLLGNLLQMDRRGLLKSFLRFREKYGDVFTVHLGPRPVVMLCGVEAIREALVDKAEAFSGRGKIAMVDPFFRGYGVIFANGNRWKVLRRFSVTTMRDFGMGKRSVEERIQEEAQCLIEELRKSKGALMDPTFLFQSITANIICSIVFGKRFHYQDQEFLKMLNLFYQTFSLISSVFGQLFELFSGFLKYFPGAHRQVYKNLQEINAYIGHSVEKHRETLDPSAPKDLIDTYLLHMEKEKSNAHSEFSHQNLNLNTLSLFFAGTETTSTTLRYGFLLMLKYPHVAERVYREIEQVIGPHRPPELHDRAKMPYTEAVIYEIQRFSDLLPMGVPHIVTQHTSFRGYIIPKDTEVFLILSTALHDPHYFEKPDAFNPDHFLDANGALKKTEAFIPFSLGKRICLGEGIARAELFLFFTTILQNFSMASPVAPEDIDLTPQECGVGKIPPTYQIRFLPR
Procedure: as §1

[3] = system: T2, P-gp; assay: P-gp inhibition study in MDCK-MDR1 cells; assay type: in vitro ADME; details: human, probe [3H]-quinidine, 100 nM
T2 construct: host or cells: MDCK-MDR1 (MDCK cells stably transfected with MDR1)
Procedure: MDCK-MDR1 cells and MDCK-II cells transfected with BCRP were washed with HBSS at 37°C. Wells of the culture plate served as the apical compartment, and 150 μL of HBSS solutions was added to the apical wells. These solutions also contain one of the following: vehicle (for probe substrate controls), 100 μM test article (for test article inhibition experiments), 1 μM Ko143 (for BCRP inhibition), or 3 μM elacridar (for P-gp inhibition). A 96-well receiver tray was prepared with each well containing 300 μL of buffer solution corresponding to the apical wells. Receiver tray wells served as the basal compartment. The plate and receiver tray were assembled and incubated at 37°C for 30 min. The solution was then aspirated from the apical compartment and the 96-well plate was removed from the receiver tray. […] These samples were counted on a 1450 Microbeta (PerkinElmer). For samples containing test articles, samples were quantitated using LC-MS.
Net basal (B) to apical (A) flux (B→A) of the substrate transport by BCRP and P-gp was calculated by subtracting (A→B) flux from (B→A) flux as: netB→Aflux(pmol/min/cm^2)=(B→A)flux-(A→B)flux.
Percent inhibition was calculated by dividing the net flux (B→A) in the presence of the test article or the reference inhibitor by the net flux (B→A) in the absence of the inhibitor as: %inhibition=100−(100×netfluxwithinhibitor/(meannetflux)withoutinhibitor).

CYP2E1, sequence (P05181 whole entry): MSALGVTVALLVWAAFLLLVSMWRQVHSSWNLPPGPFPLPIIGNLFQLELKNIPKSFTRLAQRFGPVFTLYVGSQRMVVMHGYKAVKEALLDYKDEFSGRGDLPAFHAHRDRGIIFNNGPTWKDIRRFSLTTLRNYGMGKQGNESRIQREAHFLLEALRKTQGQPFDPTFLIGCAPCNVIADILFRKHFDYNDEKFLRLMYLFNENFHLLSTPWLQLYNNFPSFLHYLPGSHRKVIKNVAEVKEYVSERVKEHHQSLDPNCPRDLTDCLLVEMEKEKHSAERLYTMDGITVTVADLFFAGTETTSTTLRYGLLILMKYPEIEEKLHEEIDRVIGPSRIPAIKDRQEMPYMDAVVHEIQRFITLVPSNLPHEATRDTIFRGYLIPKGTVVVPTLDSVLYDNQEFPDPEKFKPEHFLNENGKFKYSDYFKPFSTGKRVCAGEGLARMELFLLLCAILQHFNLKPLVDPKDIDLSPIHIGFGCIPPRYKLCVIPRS

Cc1ncsc1CCCl [chlormethiazole]
IC50 [1]: 1.08 nM

COC(=O)[C@H](c1ccccc1Cl)N1CCc2sccc2C1 [clopidogrel]
IC50 [2]: 163 nM

COc1cc2c(cc1OC)CN(CCc1ccc(NC(=O)c3cccc4c(=O)c5cccc(OC)c5[nH]c34)cc1)CC2 [elacridar]
inhibition at 90 min, 3 μM [3]: 90.2 ± 1.42%
